Data set [1] addresses T1, Amine oxidase [flavin-containing] A (Homo sapiens, UniProt P21397).
T1 sequence (P21397 whole entry): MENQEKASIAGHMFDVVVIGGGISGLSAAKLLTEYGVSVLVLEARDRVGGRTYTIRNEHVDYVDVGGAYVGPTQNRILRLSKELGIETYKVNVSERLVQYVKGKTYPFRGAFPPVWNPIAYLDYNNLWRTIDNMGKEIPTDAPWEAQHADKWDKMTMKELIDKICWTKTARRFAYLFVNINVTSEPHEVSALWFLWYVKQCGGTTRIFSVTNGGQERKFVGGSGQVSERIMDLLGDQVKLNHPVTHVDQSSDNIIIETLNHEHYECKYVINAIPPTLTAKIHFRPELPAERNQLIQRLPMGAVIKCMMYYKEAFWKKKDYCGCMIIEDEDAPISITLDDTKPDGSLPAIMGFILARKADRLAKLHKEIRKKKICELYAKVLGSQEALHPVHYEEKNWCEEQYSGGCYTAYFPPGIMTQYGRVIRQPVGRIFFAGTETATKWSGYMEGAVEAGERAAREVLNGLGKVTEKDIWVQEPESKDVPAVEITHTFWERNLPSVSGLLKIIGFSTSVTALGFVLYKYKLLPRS
Description: Inhibition of human MAO-A using p-tyramine as substrate assessed as H2O2 production by amplex red assay.

A further data set is filed under the species Homo sapiens. Description: Selectivity index, ratio of IC50 for human MAO-A to IC50 for human MAO-B.
Data set [2] addresses Acetylcholinesterase (Homo sapiens, UniProt P22303). Description: Inhibition of human AChE using acetylthiocholine iodide as substrate incubated for 6 mins prior to substrate addition measured after 60 to 180 secs by Ellman method. On the technique in general: In Ellman's method for cholinesterases, released thiocholine reacts with DTNB.
For a further data set, the target named is Cholinesterase (Homo sapiens, UniProt P06276). The data set can be described thus: Inhibition of human BuChE using S-butyrylthiocholine iodide as substrate incubated for 6 mins prior to substrate addition measured after 60 to 180 secs by Ellman method.
Data set [3] addresses T2, Acetylcholinesterase (Electrophorus electricus, UniProt O42275). The data set can be described thus: Mixed-type inhibition of electric eel AChE by Lineweaver-Burk plot analysis.
The target of data set [4] is T3, Amine oxidase [flavin-containing] B (Homo sapiens, UniProt P27338).
T3 sequence (P27338 whole entry): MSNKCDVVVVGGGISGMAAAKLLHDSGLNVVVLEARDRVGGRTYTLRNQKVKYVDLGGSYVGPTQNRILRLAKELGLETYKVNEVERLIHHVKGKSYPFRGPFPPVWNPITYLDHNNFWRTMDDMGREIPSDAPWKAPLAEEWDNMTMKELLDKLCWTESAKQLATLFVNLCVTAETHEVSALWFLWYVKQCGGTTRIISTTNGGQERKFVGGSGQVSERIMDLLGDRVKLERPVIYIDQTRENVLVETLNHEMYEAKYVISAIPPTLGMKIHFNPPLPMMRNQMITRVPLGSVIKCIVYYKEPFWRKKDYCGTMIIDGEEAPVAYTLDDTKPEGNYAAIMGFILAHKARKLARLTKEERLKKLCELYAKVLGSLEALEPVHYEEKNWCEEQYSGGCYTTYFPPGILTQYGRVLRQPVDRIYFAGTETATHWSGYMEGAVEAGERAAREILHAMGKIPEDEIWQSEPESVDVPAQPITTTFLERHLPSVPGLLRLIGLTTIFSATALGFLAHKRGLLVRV
The data set can be described thus: Reversible inhibition of human MAO-B at 100 times IC50 incubated for 30 mins followed by 100 fold dilution to IC50 by dilution assay relative to control. To be noted: 0.5 h.

For data set [5], the target named is T3, Amine oxidase [flavin-containing] B. Description: Competitive inhibition of human MAO-B using p-tyramine as substrate at 0.5 to 0.125 uM by double reciprocal Lineweaver-Burk plot analysis.
Data set [6] can be described thus: Cytotoxicity against human SH-SY5Y cells assessed as cell viability at 13 uM after 24 hrs by MTT assay. It is filed as cell-based. As to conditions: read-out: Activity; call rule not given here. Background: Tetrazolium assays rely on reduction of a dye to a coloured formazan, in cell work by metabolically active cells.
Data set [7] can be described thus: Cytotoxicity against human SH-SY5Y cells assessed as cell viability at […] after 24 hrs by MTT assay. It is filed as cell-based. As to conditions: read-out: Activity.
Data set [8] is described as follows: Cytotoxicity against human SH-SY5Y cells assessed as cell viability at 3.25 uM after 24 hrs by MTT assay. It is filed as cell-based. As to conditions: read-out: Activity.
A short description of data set [9]: Cytotoxicity against human SH-SY5Y cells assessed as cell viability at 1.63 uM after 24 hrs by MTT assay. It is filed as cell-based. To be noted: read-out: Activity.
Data set [10] is described as follows: Cytotoxicity against human SH-SY5Y cells assessed as cell viability at 0.81 uM after 24 hrs by MTT assay. In kind it is cell-based. As to conditions: read-out: Activity.
In data set [11] the target is T2, Acetylcholinesterase.
Description: Inhibition of electric eel AChE using acetylthiocholine iodide as substrate incubated for 6 mins prior to substrate addition measured after 60 to 180 secs by Ellman method
Another data set can be described thus: in vitro. As to conditions: PAMPA. On the technique in general: In PAMPA a lipid-coated filter parts donor from acceptor wells.

For orientation: IC50 means the point on the concentration scale where inhibition reaches its midpoint. In general, Ki refers to the equilibrium dissociation constant of an inhibitor or competing ligand from its target. Read a high Ki as weaker binding. As a reminder, the Papp is a coefficient for how fast a substance crosses the barrier. A low value points to poor permeation.

T2 sequence (O42275 whole entry): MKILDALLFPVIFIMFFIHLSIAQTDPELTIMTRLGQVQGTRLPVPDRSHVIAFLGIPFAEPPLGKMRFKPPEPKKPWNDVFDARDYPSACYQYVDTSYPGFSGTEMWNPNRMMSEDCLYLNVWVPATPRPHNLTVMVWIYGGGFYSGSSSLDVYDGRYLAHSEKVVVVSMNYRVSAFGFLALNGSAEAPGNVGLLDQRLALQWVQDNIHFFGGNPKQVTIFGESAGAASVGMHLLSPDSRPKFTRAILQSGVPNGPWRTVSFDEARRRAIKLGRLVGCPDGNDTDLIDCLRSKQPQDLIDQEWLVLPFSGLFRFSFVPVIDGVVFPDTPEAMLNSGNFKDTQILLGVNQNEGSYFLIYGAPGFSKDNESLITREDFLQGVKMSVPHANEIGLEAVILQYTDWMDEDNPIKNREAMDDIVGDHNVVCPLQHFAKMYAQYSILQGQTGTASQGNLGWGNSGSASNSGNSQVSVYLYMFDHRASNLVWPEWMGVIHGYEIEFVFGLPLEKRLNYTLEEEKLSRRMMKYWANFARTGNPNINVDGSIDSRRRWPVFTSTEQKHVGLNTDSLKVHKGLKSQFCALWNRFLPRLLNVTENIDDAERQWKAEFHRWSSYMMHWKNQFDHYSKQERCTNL
Acetylcholinesterase (Homo sapiens, UniProt P22303), sequence (P22303 whole entry): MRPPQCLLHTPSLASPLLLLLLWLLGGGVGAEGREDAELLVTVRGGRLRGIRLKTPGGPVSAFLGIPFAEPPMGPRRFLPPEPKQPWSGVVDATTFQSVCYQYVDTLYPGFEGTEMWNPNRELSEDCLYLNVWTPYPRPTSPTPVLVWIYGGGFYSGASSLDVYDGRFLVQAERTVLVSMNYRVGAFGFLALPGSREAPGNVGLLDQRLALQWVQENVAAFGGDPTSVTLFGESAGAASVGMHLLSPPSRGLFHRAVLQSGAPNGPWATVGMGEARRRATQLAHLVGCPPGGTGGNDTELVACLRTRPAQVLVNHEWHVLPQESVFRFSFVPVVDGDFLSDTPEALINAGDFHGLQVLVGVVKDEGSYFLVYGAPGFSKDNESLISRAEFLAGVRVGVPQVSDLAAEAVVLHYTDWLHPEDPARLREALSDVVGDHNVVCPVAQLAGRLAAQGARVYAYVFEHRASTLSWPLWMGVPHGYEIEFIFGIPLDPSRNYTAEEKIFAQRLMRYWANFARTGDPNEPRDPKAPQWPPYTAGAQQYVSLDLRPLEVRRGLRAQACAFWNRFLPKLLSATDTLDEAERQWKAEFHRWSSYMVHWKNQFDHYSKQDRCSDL
Cholinesterase, sequence (P06276 whole entry): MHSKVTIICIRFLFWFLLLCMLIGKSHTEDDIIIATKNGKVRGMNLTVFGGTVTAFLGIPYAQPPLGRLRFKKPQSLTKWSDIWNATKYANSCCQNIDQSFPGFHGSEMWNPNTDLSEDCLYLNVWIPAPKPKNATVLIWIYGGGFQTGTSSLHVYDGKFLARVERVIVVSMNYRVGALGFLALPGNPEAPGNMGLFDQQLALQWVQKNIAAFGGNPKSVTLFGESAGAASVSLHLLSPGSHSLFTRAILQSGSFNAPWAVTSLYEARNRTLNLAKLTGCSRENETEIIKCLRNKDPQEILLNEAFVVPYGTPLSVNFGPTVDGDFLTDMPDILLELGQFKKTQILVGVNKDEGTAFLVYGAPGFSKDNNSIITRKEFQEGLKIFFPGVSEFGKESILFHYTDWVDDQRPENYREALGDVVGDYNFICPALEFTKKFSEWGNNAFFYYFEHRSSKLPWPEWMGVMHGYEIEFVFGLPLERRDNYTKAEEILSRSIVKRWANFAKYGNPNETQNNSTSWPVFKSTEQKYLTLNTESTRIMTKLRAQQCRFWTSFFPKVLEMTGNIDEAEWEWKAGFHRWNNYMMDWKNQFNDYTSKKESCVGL
Description for in vitro: Permeability of the compound after 16 hrs by PAMPA

Regarding `Cc1c(C)c2ccc(OCCN3CCN(CCCNc4c5c(nc6ccccc46)CCCC5)CC3)cc2oc1=O`, the half-maximal inhibitory concentration (IC50) stood at 15100 nM in data set [1], 16.1 nM on Acetylcholinesterase [2], 113 nM on Cholinesterase and 33.6 nM on Acetylcholinesterase [11]. For the same compound, the Ratio IC50 in the data set filed under Homo sapiens turned out to be 62.8. Further, the affinity at Acetylcholinesterase [3] corresponds to a Ki of 34.4 nM. The “inhibition (INH)” value in data set [4] is reported as 79%; in data set [5], “Active”. Moreover, the viability at 24 h, 13 µM in [6] came to 77.1%. Moreover, the viability at 24 h, […] in [7] is 85.7%. Besides, in [8], the viability at 24 h, 3.25 µM was 91.1%. For the same compound, the viability at 24 h, 1.63 µM in data set [9] came out at 96.6%. Besides, in data set [10], the viability at 24 h, 0.81 µM stood at 101%. The same compound had a Papp at 16 h in the data set “in vitro” of 4.75 ×10⁻⁶ cm/s.

Values taken from ChEMBL document CHEMBL3414495, “Multi-target tacrine-coumarin hybrids: cholinesterase and monoamine oxidase B inhibition properties against Alzheimer's disease” (Eur J Med Chem, 2015).
